Measurements: patent US8653041B2, “Antibacterial aminoglycoside analogs” (Achaogen, Inc., priority 2010, dated 2014)
In brackets after ≈: the same amount, converted by molar mass. Where two headings read alike, the source gives them in different places. Blank lines part the entries; values can stand above or below the compound they belong to.

Assays:
Acinetobacter baumannii = assay: MIC, CLSI broth microdilution, Acinetobacter baumannii panel; assay type: cell-based; conditions: Acinetobacter baumannii, read-out: MIC
Protocol: (§1) Minimum inhibitory concentrations (MIC) were determined by reference Clinical and Laboratory Standards Institute (CLSI) broth microdilution methods per M7-A7 [2006]. Quality control ranges utilizing E. coli ATCC 25922, P. aeruginosa ATCC 27853 and S. aureus ATCC 29213, and interpretive criteria for comparator agents were as published in CLSI M100-S17 [2007]. Briefly, serial two-fold dilutions of the test compounds were prepared at 2× concentration in Mueller Hinton Broth. The compound dilutions were mixed in 96-well assay plates in a 1:1 ratio with bacterial inoculum. The inoculum was prepared by suspension of a colony from an agar plate that was prepared the previous day. Bacteria were suspended in sterile saline and added to each assay plate to obtain a final concentration of 5×10^5 CFU/mL. The plates were incubated at 35 C for 20 hours in ambient air.
The MIC panel presented in Table 2 contains 29 isolates of Acinetobacter baumannii: strains 1-24 are clinical isolates from around the world collected between 2004-2007 which contain representative resistance mechanisms commonly found in Acinetobacter baumannii, such as AAC(3)-I and II, AAC(6′)-I, ANT(2″)-I, APH(3′)-VI, and perm/efflux; strains 25-29 are susceptible.

Pseudomonas aeruginosa = assay: MIC, CLSI broth microdilution, Pseudomonas aeruginosa panel; assay type: cell-based; conditions: Pseudomonas aeruginosa, read-out: MIC
Protocol: as §1
The MIC panel presented in Table 1 contains 27 isolates of Pseudomonas aeruginosa: strains 1-22 are clinical isolates from around the world collected between 2004-2007 which contain representative resistance mechanisms commonly found in Pseudomonas, such as the AAC(6′)-I, AAC(6′)-II, APH(3′)-IIb, ANT(2″)-I, and perm/efflux; strains 23-27 are susceptible.

[1] = A. baumannii clinical strain 1 (resistant clinical isolate)
[2] = A. baumannii clinical strain 2 (resistant clinical isolate)
[3] = A. baumannii clinical strain 3 (resistant clinical isolate)
[4] = A. baumannii clinical strain 4 (resistant clinical isolate)
[5] = A. baumannii clinical strain 5 (resistant clinical isolate)
[6] = A. baumannii clinical strain 6 (resistant clinical isolate)
[7] = A. baumannii clinical strain 7 (resistant clinical isolate)
[8] = A. baumannii clinical strain 8 (resistant clinical isolate)
[9] = A. baumannii clinical strain 9 (resistant clinical isolate)
[10] = A. baumannii clinical strain 10 (resistant clinical isolate)
[11] = A. baumannii clinical strain 11 (resistant clinical isolate)
[12] = A. baumannii clinical strain 12 (resistant clinical isolate)
[13] = A. baumannii clinical strain 13 (resistant clinical isolate)
[14] = A. baumannii clinical strain 14 (resistant clinical isolate)
[15] = A. baumannii clinical strain 15 (resistant clinical isolate)
[16] = A. baumannii clinical strain 16 (resistant clinical isolate)
[17] = A. baumannii clinical strain 17 (resistant clinical isolate)
[18] = A. baumannii clinical strain 18 (resistant clinical isolate)
[19] = A. baumannii clinical strain 19 (resistant clinical isolate)
[20] = A. baumannii clinical strain 20 (resistant clinical isolate)
[21] = A. baumannii clinical strain 21 (resistant clinical isolate)
[22] = A. baumannii clinical strain 22 (resistant clinical isolate)
[23] = A. baumannii clinical strain 23 (resistant clinical isolate)
[24] = A. baumannii clinical strain 24 (resistant clinical isolate)
[25] = A. baumannii strain 25 (susceptible)
[26] = A. baumannii strain 26 (susceptible)
[27] = A. baumannii strain 27 (susceptible)
[28] = A. baumannii strain 28 (susceptible)
[29] = A. baumannii strain 29 (susceptible)
[30] = P. aeruginosa clinical strain 1 (resistant clinical isolate)
[31] = P. aeruginosa clinical strain 2 (resistant clinical isolate)
[32] = P. aeruginosa clinical strain 3 (resistant clinical isolate)
[33] = P. aeruginosa clinical strain 4 (resistant clinical isolate)
[34] = P. aeruginosa clinical strain 5 (resistant clinical isolate)
[35] = P. aeruginosa clinical strain 6 (resistant clinical isolate)
[36] = P. aeruginosa clinical strain 7 (resistant clinical isolate)
[37] = P. aeruginosa clinical strain 8 (resistant clinical isolate)
[38] = P. aeruginosa clinical strain 9 (resistant clinical isolate)
[39] = P. aeruginosa clinical strain 10 (resistant clinical isolate)
[40] = P. aeruginosa clinical strain 11 (resistant clinical isolate)
[41] = P. aeruginosa clinical strain 12 (resistant clinical isolate)
[42] = P. aeruginosa clinical strain 13 (resistant clinical isolate)
[43] = P. aeruginosa clinical strain 14 (resistant clinical isolate)
[44] = P. aeruginosa clinical strain 15 (resistant clinical isolate)
[45] = P. aeruginosa clinical strain 16 (resistant clinical isolate)
[46] = P. aeruginosa clinical strain 17 (resistant clinical isolate)
[47] = P. aeruginosa clinical strain 18 (resistant clinical isolate)
[48] = P. aeruginosa clinical strain 19 (resistant clinical isolate)
[49] = P. aeruginosa clinical strain 20 (resistant clinical isolate)
[50] = P. aeruginosa clinical strain 21 (resistant clinical isolate)
[51] = P. aeruginosa clinical strain 22 (resistant clinical isolate)
[52] = P. aeruginosa strain 23 (susceptible)
[53] = P. aeruginosa strain 24 (susceptible)
[54] = P. aeruginosa strain 25 (susceptible)
[55] = P. aeruginosa strain 26 (susceptible)
[56] = P. aeruginosa strain 27 (susceptible)

MIC (Acinetobacter baumannii; [1]): ≥ 32 µg/mL | MIC (Acinetobacter baumannii; [2]): ≥ 32 µg/mL | MIC (Acinetobacter baumannii; [3]): ≥ 32 µg/mL | MIC (Acinetobacter baumannii; [4]): ≥ 32 µg/mL | MIC (Acinetobacter baumannii; [5]): ≥ 32 µg/mL | MIC (Acinetobacter baumannii; [6]): ≥ 32 µg/mL | MIC (Acinetobacter baumannii; [7]): 1 to 8 µg/mL (≈ 2.14 to 17.1 µM) | MIC (Acinetobacter baumannii; [8]): ≥ 32 µg/mL | MIC (Acinetobacter baumannii; [9]): ≥ 32 µg/mL | MIC (Acinetobacter baumannii; [10]): ≥ 32 µg/mL | MIC (Acinetobacter baumannii; [11]): ≥ 32 µg/mL | MIC (Acinetobacter baumannii; [12]): 16 to 32 µg/mL (≈ 34.2 to 68.4 µM) | MIC (Acinetobacter baumannii; [13]): ≤ 1 µg/mL | MIC (Acinetobacter baumannii; [14]): ≤ 1 µg/mL | MIC (Acinetobacter baumannii; [15]): ≤ 1 µg/mL | MIC (Acinetobacter baumannii; [16]): 1 to 8 µg/mL (≈ 2.14 to 17.1 µM) | MIC (Acinetobacter baumannii; [17]): ≤ 1 µg/mL | MIC (Acinetobacter baumannii; [18]): 1 to 8 µg/mL (≈ 2.14 to 17.1 µM) | MIC (Acinetobacter baumannii; [19]): ≤ 1 µg/mL | MIC (Acinetobacter baumannii; [20]): 1 to 8 µg/mL (≈ 2.14 to 17.1 µM) | MIC (Acinetobacter baumannii; [21]): ≥ 32 µg/mL | MIC (Acinetobacter baumannii; [22]): ≥ 32 µg/mL | MIC (Acinetobacter baumannii; [23]): ≥ 32 µg/mL | MIC (Acinetobacter baumannii; [24]): ≥ 32 µg/mL | MIC (Acinetobacter baumannii; [25]): ≤ 1 µg/mL | MIC (Acinetobacter baumannii; [26]): ≤ 1 µg/mL | MIC (Acinetobacter baumannii; [27]): ≤ 1 µg/mL | MIC (Acinetobacter baumannii; [28]): ≤ 1 µg/mL | MIC (Acinetobacter baumannii; [29]): ≤ 1 µg/mL | MIC (Pseudomonas aeruginosa; [30]): ≥ 32 µg/mL | MIC (Pseudomonas aeruginosa; [31]): 16 to 32 µg/mL (≈ 34.2 to 68.4 µM) | MIC (Pseudomonas aeruginosa; [32]): ≥ 32 µg/mL | MIC (Pseudomonas aeruginosa; [33]): ≥ 32 µg/mL | MIC (Pseudomonas aeruginosa; [34]): ≥ 32 µg/mL | MIC (Pseudomonas aeruginosa; [35]): ≥ 32 µg/mL | MIC (Pseudomonas aeruginosa; [36]): ≥ 32 µg/mL | MIC (Pseudomonas aeruginosa; [37]): ≥ 32 µg/mL | MIC (Pseudomonas aeruginosa; [38]): ≥ 32 µg/mL | MIC (Pseudomonas aeruginosa; [39]): ≥ 32 µg/mL | MIC (Pseudomonas aeruginosa; [40]): 8 to 16 µg/mL (≈ 17.1 to 34.2 µM) | MIC (Pseudomonas aeruginosa; [41]): ≥ 32 µg/mL | MIC (Pseudomonas aeruginosa; [42]): ≥ 32 µg/mL | MIC (Pseudomonas aeruginosa; [43]): ≥ 32 µg/mL | MIC (Pseudomonas aeruginosa; [44]): ≥ 32 µg/mL | MIC (Pseudomonas aeruginosa; [45]): ≥ 32 µg/mL | MIC (Pseudomonas aeruginosa; [46]): ≥ 32 µg/mL | MIC (Pseudomonas aeruginosa; [47]): ≥ 32 µg/mL | MIC (Pseudomonas aeruginosa; [48]): ≥ 32 µg/mL | MIC (Pseudomonas aeruginosa; [49]): 1 to 8 µg/mL (≈ 2.14 to 17.1 µM) | MIC (Pseudomonas aeruginosa; [50]): ≤ 1 µg/mL | MIC (Pseudomonas aeruginosa; [51]): ≤ 1 µg/mL | MIC (Pseudomonas aeruginosa; [52]): ≤ 1 µg/mL | MIC (Pseudomonas aeruginosa; [53]): ≤ 1 µg/mL | MIC (Pseudomonas aeruginosa; [54]): ≤ 1 µg/mL | MIC (Pseudomonas aeruginosa; [55]): ≤ 1 µg/mL | MIC (Pseudomonas aeruginosa; [56]): 1 to 8 µg/mL (≈ 2.14 to 17.1 µM)
SMILES: NC[C@H]1O[C@H](O[C@H]2[C@H](O)[C@@H](O[C@H]3O[C@H](CO)[C@@H](O)[C@H](N)[C@H]3O)[C@H](N)C[C@@H]2N)[C@H](N)C[C@@H]1O [TOB, tobramycin]

MIC (Acinetobacter baumannii; [1]): ≥ 32 µg/mL | MIC (Acinetobacter baumannii; [2]): ≥ 32 µg/mL | MIC (Acinetobacter baumannii; [3]): 8 to 16 µg/mL (≈ 13.7 to 27.3 µM) | MIC (Acinetobacter baumannii; [4]): 16 to 32 µg/mL (≈ 27.3 to 54.6 µM) | MIC (Acinetobacter baumannii; [5]): ≥ 32 µg/mL | MIC (Acinetobacter baumannii; [6]): ≥ 32 µg/mL | MIC (Acinetobacter baumannii; [7]): ≥ 32 µg/mL | MIC (Acinetobacter baumannii; [8]): ≥ 32 µg/mL | MIC (Acinetobacter baumannii; [9]): 1 to 8 µg/mL (≈ 1.71 to 13.7 µM) | MIC (Acinetobacter baumannii; [10]): 1 to 8 µg/mL (≈ 1.71 to 13.7 µM) | MIC (Acinetobacter baumannii; [11]): ≥ 32 µg/mL | MIC (Acinetobacter baumannii; [12]): ≥ 32 µg/mL | MIC (Acinetobacter baumannii; [13]): ≥ 32 µg/mL | MIC (Acinetobacter baumannii; [14]): ≥ 32 µg/mL | MIC (Acinetobacter baumannii; [15]): ≥ 32 µg/mL | MIC (Acinetobacter baumannii; [16]): ≥ 32 µg/mL | MIC (Acinetobacter baumannii; [17]): ≥ 32 µg/mL | MIC (Acinetobacter baumannii; [18]): ≥ 32 µg/mL | MIC (Acinetobacter baumannii; [19]): 1 to 8 µg/mL (≈ 1.71 to 13.7 µM) | MIC (Acinetobacter baumannii; [20]): 1 to 8 µg/mL (≈ 1.71 to 13.7 µM) | MIC (Acinetobacter baumannii; [21]): ≥ 32 µg/mL | MIC (Acinetobacter baumannii; [22]): ≥ 32 µg/mL | MIC (Acinetobacter baumannii; [23]): ≥ 32 µg/mL | MIC (Acinetobacter baumannii; [24]): ≥ 32 µg/mL | MIC (Acinetobacter baumannii; [25]): ≤ 1 µg/mL | MIC (Acinetobacter baumannii; [26]): 1 to 8 µg/mL (≈ 1.71 to 13.7 µM) | MIC (Acinetobacter baumannii; [27]): 1 to 8 µg/mL (≈ 1.71 to 13.7 µM) | MIC (Acinetobacter baumannii; [28]): 1 to 8 µg/mL (≈ 1.71 to 13.7 µM) | MIC (Acinetobacter baumannii; [29]): ≤ 1 µg/mL | MIC (Pseudomonas aeruginosa; [30]): ≥ 32 µg/mL | MIC (Pseudomonas aeruginosa; [31]): ≥ 32 µg/mL | MIC (Pseudomonas aeruginosa; [32]): ≥ 32 µg/mL | MIC (Pseudomonas aeruginosa; [33]): ≥ 32 µg/mL | MIC (Pseudomonas aeruginosa; [34]): ≥ 32 µg/mL | MIC (Pseudomonas aeruginosa; [35]): 8 to 16 µg/mL (≈ 13.7 to 27.3 µM) | MIC (Pseudomonas aeruginosa; [36]): 1 to 8 µg/mL (≈ 1.71 to 13.7 µM) | MIC (Pseudomonas aeruginosa; [37]): 16 to 32 µg/mL (≈ 27.3 to 54.6 µM) | MIC (Pseudomonas aeruginosa; [38]): 8 to 16 µg/mL (≈ 13.7 to 27.3 µM) | MIC (Pseudomonas aeruginosa; [39]): 16 to 32 µg/mL (≈ 27.3 to 54.6 µM) | MIC (Pseudomonas aeruginosa; [40]): ≤ 1 µg/mL | MIC (Pseudomonas aeruginosa; [41]): ≤ 1 µg/mL | MIC (Pseudomonas aeruginosa; [42]): 1 to 8 µg/mL (≈ 1.71 to 13.7 µM) | MIC (Pseudomonas aeruginosa; [43]): 1 to 8 µg/mL (≈ 1.71 to 13.7 µM) | MIC (Pseudomonas aeruginosa; [44]): 8 to 16 µg/mL (≈ 13.7 to 27.3 µM) | MIC (Pseudomonas aeruginosa; [45]): ≥ 32 µg/mL | MIC (Pseudomonas aeruginosa; [46]): ≥ 32 µg/mL | MIC (Pseudomonas aeruginosa; [47]): ≥ 32 µg/mL | MIC (Pseudomonas aeruginosa; [48]): ≥ 32 µg/mL | MIC (Pseudomonas aeruginosa; [49]): ≥ 32 µg/mL | MIC (Pseudomonas aeruginosa; [50]): 16 to 32 µg/mL (≈ 27.3 to 54.6 µM) | MIC (Pseudomonas aeruginosa; [51]): 16 to 32 µg/mL (≈ 27.3 to 54.6 µM) | MIC (Pseudomonas aeruginosa; [52]): 1 to 8 µg/mL (≈ 1.71 to 13.7 µM) | MIC (Pseudomonas aeruginosa; [53]): 1 to 8 µg/mL (≈ 1.71 to 13.7 µM) | MIC (Pseudomonas aeruginosa; [54]): 1 to 8 µg/mL (≈ 1.71 to 13.7 µM) | MIC (Pseudomonas aeruginosa; [55]): 1 to 8 µg/mL (≈ 1.71 to 13.7 µM) | MIC (Pseudomonas aeruginosa; [56]): ≤ 1 µg/mL
SMILES: NCC[C@H](O)C(=O)N[C@@H]1C[C@H](N)[C@@H](O[C@H]2O[C@H](CN)[C@@H](O)[C@H](O)[C@H]2O)[C@H](O)[C@H]1O[C@H]1O[C@H](CO)[C@@H](O)[C@H](N)[C@H]1O [AMK, amikacin]
